From patent publication US6881741B2 (ViroChem Pharma Inc., priority 2001, dated 2005)

Target: recombinant HCV NS5B (HCV RNA-dependent RNA polymerase) (Hepatitis C virus genotype 1b, UniProt P26663)
Experiment: biochemical
Conditions: HCV polymerase activity, list of compounds of Example 27; read-out: IC50 (polymerase activity)

Chain of recombinant HCV NS5B (HCV RNA-dependent RNA polymerase) (P26663 2420-3010 limits assumed): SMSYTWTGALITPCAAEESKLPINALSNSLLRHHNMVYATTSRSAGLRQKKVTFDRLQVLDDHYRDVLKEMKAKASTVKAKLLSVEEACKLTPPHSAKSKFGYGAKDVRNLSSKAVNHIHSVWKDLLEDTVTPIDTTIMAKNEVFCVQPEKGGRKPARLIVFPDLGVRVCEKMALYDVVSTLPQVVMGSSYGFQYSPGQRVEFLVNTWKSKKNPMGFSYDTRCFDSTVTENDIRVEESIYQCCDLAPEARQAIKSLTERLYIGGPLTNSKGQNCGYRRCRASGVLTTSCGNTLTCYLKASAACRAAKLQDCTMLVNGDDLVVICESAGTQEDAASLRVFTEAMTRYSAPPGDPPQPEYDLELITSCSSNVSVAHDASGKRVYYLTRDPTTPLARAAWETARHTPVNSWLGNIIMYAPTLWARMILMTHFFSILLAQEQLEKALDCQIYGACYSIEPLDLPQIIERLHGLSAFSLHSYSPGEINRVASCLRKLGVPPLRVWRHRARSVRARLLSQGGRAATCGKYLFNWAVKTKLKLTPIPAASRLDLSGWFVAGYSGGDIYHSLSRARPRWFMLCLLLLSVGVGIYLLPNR

Compared with CC(C)N(C(=O)c1ccc(Cl)cc1Cl)c1cc(-c2nccs2)sc1C(=O)O [Compound 449, 3-[(2,4-DICHLORO-BENZOYL)- ISOPROPYL-AMINO]-5-THIAZOL-2-YL- THIOPHENE-2-CARBOXYLIC ACID], Cc1ccc(C(=O)N(c2cc(-c3ccccc3)sc2C(=O)O)C(C)C)c(/C=N/O)c1 [Compound 505, 3-{[2-(HYDROXYIMINO-METHYL)-4- METHYL-BENZOYL]-ISOPROPYL-AMINO)-5- PHENYL-THIOPHENE-2-CARBOXYLIC ACID] is higher in IC50: less than 5 µM for the first, 5 to 20 µM for the second.

Compared with CC(C)N(C(=O)C12CC3CC(CC(C3)C1)C2)c1cc(-c2ccccc2)sc1C(=O)O [Compound 424, 3-[(ADAMANTANE-1-CARBONYL)- ISOPROPYL-AMINO]-5-PHENYL- THIOPHENE-2-CARBOXYLIC ACID], O=C(O)c1sc(-c2ccccc2)cc1N(C(=O)c1ccc(Cl)cc1Cl)C1CCCNC1 (stereo not drawn) [Compound 514, 3-[(2,4-DICHLORO-BENZOYL)-PIPERIDIN- 3-YL-AMINO]-5-PHENYL-THIOPHENE-2- CARBOXYLIC ACID; COMPOUND WITH GENERIC INORGANIC NEUTRAL COMPONENT] is lower in IC50: greater than 20 µM for the first, less than 5 µM for the second. The second is the more potent here.

Same assay, conditions: related polymerase activity (Example 27 list); read-out: IC50

Cc1cc(S(=O)(=O)N(Cc2cccc(I)c2)c2cc(-c3ccccc3)sc2C(=O)O)c(C)cc1Cl [Compound 1, 3-[(4-CHLORO-2,5-DIMETHYL-BENZENESULFONYL)-(3-IODO-BENZYL)-AMINO]-5-PHENYL-THIOPHENE-2-CARBOXYLIC ACID] and COc1cc(C)ccc1C(=O)N(C)c1cc(-c2ccccc2)sc1C(=O)O [Compound 205, 3-[(2-METHOXY-4-METHYL-BENZOYL)-METHYL-AMINO]-5-PHENYL-THIOPHENE-2-CARBOXYLIC ACID] fall in the same range of IC50: 5 to 20 µM for the first, 5 to 20 µM for the second.

Compared with CC(=O)c1ccc(-c2cc(NS(=O)(=O)c3ccc(C)cc3)c(C(=O)O)s2)cc1 [Compound 237, 5-(4-ACETYL-PHENYL)-3-(TOLUENE-4-SULFONYLAMINO)-THIOPHENE-2-CARBOXYLIC ACID], Cc1ccccc1S(=O)(=O)Nc1cc(-c2ccc(N)cc2)sc1C(=O)O [Compound 165, 5-(4-AMINO-PHENYL)-3-(TOLUENE-2-SULFONYLAMINO)-THIOPHENE-2-CARBOXYLIC ACID] is higher in IC50: less than 5 µM for the first, 5 to 20 µM for the second.

Compared with Cc1ccc(C(=O)N(C)c2cc(-c3cccc(N)c3)sc2C(=O)O)cc1 [Compound 271, 5-(3-AMINO-PHENYL)-3-[METHYL-(4-METHYL-BENZOYL)-AMINO]-THIOPHENE-2-CARBOXYLIC ACID], C=CCN(C(=O)c1ccc(C)cc1)c1cc(-c2ccc(/C=C/C(=O)O)cc2)sc1C(=O)O [Compound 312, 3-[ALLYL-(4-METHYL-BENZOYL)-AMINO]- 5-[4-(2-CARBOXY-VINYL)-PHENYL]- THIOPHENE-2-CARBOXYLIC ACID] is lower in IC50: 5 to 20 µM for the first, less than 5 µM for the second. The second is the more potent here.

O=C(O)c1sc(-c2ccccc2)cc1NS(=O)(=O)c1ccccc1C(F)(F)F [Compound 35, 5-PHENYL-3-(2-TRIFLUOROMETHYL-BENZENESULFONYLAMINO)-THIOPHENE-2-CARBOXYLIC ACID] and C=CCN(C(=O)Cc1ccc(C(F)(F)F)cc1)c1cc(-c2ccccc2)sc1C(=O)O [Compound 352, 3-{ALLYL-[2-(4-TRIFLUOROMETHYL- PHENYL)-ACETYL]-AMINO}-5-PHENYL- THIOPHENE-2-CARBOXYLIC ACID] cannot be ordered by IC50: greater than 20 µM for the first, greater than 20 µM for the second.

O=C(O)c1sc(-c2ccc([N+](=O)[O-])cc2)cc1NS(=O)(=O)c1ccc(F)cc1F [Compound 109, 3-(2,4-DIFLUORO-BENZENESULFONYLAMINO)-5-(4-NITRO-PHENYL)-THIOPHENE-2-CARBOXYLIC ACID] and CC(C)N(C(=O)c1ccc(Cl)cc1Cl)c1cc(-c2ccc(S(C)(=O)=O)cc2)sc1C(=O)O [Compound 373, 3-[(2,4-DICHLORO-BENZOYL)- ISOPROPYL-AMINO]-5-(4- METHANESULFONYL-PHENYL)- THIOPHENE-2-CARBOXYLIC ACID] cannot be ordered by IC50: less than 5 µM for the first, less than 5 µM for the second.

For CC1CCCC(C(=O)N(c2cc(-c3ccccc3)sc2C(=O)O)C(C)C)C1 (stereo not drawn) [Compound 371, 3-[(3-METHYL- CYCLOHEXANECARBOXYL)-ISOPROPYL- AMINO]-5-PHENYL-THIOPHENE-2- CARBOXYLIC ACID], the IC50 was greater than 20 µM.
